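Compound exposure: 48 hours, 5 concentrations, 96-well plates. GI50 is the concentration that inhibits growth by half. TGI is the concentration that stops growth completely.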
Legend:
Assay in all cases: NCI tumour cell line growth inhibition, 48 h
[1] = test system: NCI-H460 lung
[2] = test system: HT29 colon
[3] = test system: HL-60(TB) leukemia
[4] = test system: MALME-3M melanoma
[5] = test system: SF-268 CNS
[6] = test system: LOX IMVI melanoma
[7] = test system: SK-MEL-5 melanoma
[8] = test system: RPMI-8226 leukemia
[9] = test system: MDA-MB-231 breast
[10] = test system: SF-295 CNS

SMILES	GI50 [1] [µM]	TGI [1] [µM]	GI50 [2] [µM]	TGI [2] [µM]	GI50 [3] [µM]	GI50 [4] [µM]	TGI [4] [µM]	GI50 [5] [µM]	TGI [5] [µM]	GI50 [6] [µM]	TGI [6] [µM]	GI50 [7] [µM]	TGI [7] [µM]	GI50 [8] [µM]	TGI [8] [µM]	GI50 [9] [µM]	TGI [9] [µM]	GI50 [10] [µM]	TGI [10] [µM]	TGI [3] [µM]
COc1ccc(/C=C(\C#N)n2nnc3ccccc32)cc1	0.322	7.88	0.0453	> 100	0.126	0.418	> 71.2	2.42	> 100	0.548	6.72	0.282	2.89	0.385	24.6	0.525	3.47	0.205	6.66	
O=Cc1ccccc1B(O)O		> 100		> 100					> 100		> 100				0.0472		> 100		> 100	> 100
COc1cc(/C=N/NC(=O)c2cnn3c2NC(c2ccccc2)C3)ccc1Oc1ccccc1 (stereo not drawn)	0.875	2.83	0.432	1.76		1.21	5.26	2.46	14.6	0.736	2.36	0.734	3.94	2.83	31.4	1.66	5.03	0.522	2.08	
O=c1[nH]c(=O)c2cc(C3CC(O)C(CO)O3)ccc2[nH]1 (stereo not drawn)	> 100	> 100	> 100	> 100				> 100	> 100	> 100	> 100	> 100	> 100	> 100	> 100	> 100	> 100	> 100	> 100	
CN1CC[C@]2(C)c3cc(O)ccc3CC3CCCC1C32C (stereo partly drawn)		> 100		> 100			> 100		> 100		> 100		> 100		> 100				> 100	> 100
CN(C)CCNC(=O)c1cccc2[nH]c(-c3cccnc3)nc12		49.9		92.8					98.7		48.7		30.8						> 100	> 100
CCN1Cc2c(ccc(F)c2C#N)O[C@@H](C)CNC(=O)c2c(N)nn3ccc1nc23	2.42	28.9	0.98	46.7	4.37	1.15	7.4	3.26	20.3	1.13	6.9	3.46	15.2			1.32	4.21	0.0758	10.3	40
COC(=O)[C@]12CC=C3O[C@@H]4OC5(CCCCC5)O[C@@H]4C3[C@@H]1C(=O)CCC2=O (stereo partly drawn)		> 100		> 100			> 100		> 100		> 100		> 100		> 100				> 100	> 100
Nc1nc(N)c2c(n1)NC(c1ccc(F)cc1)C1CCc3ccccc3C1=N2 (stereo not drawn)	3.76	13.6	3.84	15		2.52	15	8.64	23.7	3.98	16.1	0.609	2.21	1.81	5.11	5.8	19.8	1.71	6.18	
Cc1[nH]c(=O)n2c(C)nnc2c1C(=O)Nc1cc(Cl)cc(Cl)c1		> 100		> 100			> 100		> 100		> 100		31		> 100				> 100	47.9
CN(C)C=[N+]=[N-]		> 100		> 100			> 100		> 100				> 100		> 100				> 100	> 100
CCCC/C=C1\CCC(C)(CN(C)C)C1=O (stereo not drawn)		> 100		> 100			> 100		> 100				> 100						> 100	> 100
S=c1ssc(Oc2ccccc2)c1Cl	16.9	33.1	1.37	> 100	3.21			13.3	26.1	5.61	22.7	17.3	35.1	0.95	7.7	14.2	29.6	15.1	28.3	> 100
FC(F)(F)c1ccc(C#Cc2ccccc2C#Cc2ccccc2)cc1	41.1	> 100	42.6	> 100		36.3	> 100	42.9	> 100	26.2	55.3	32.7	> 100			26.5	62.7	30.3	> 100	
COc1ccccc1C1c2cc3c(cc2OC(O)(CO)C1C(=O)O)OCO3 (stereo not drawn) (tested in a mixture with another compound)		> 100		> 100			> 100		> 100		> 100		> 100		> 100				> 100	> 100
CCCCCCCCCCC(C(O)c1ccccc1)N1CCCCC1 (stereo not drawn)	1.84	3.36	1.72	4.41	1.96			1.51	4.73	1.67	3.03	1.69	3.06	1.9	4.34	1.76	3.69	1.83	3.23	4.25
C[C@]12CCC(=O)C(O)=C1CC[C@@H]1C2CC[C@]2(C)Nc3c(cnn3-c3ccccc3)CC12 (stereo partly drawn)		> 100		> 100			> 100						> 100		97.5				> 100	62.6
Cc1ccc([N+](=O)[O-])cc1NC(=O)c1cccc([N+](=O)[O-])c1O		> 100		> 100			62.7		83.9		> 100		28.7		68.3				63.3	34.4

Source: PubChem BioAssay (NCI)
